In this data set the target is p-gp (Homo sapiens, UniProt P08183). As to the kind of experiment: Effect of p-gp inhibitors on cellular transport of HSYA solution. The format is in vitro ADME. The note with it: Figure 5A.
Chain of p-gp (P08183 whole entry): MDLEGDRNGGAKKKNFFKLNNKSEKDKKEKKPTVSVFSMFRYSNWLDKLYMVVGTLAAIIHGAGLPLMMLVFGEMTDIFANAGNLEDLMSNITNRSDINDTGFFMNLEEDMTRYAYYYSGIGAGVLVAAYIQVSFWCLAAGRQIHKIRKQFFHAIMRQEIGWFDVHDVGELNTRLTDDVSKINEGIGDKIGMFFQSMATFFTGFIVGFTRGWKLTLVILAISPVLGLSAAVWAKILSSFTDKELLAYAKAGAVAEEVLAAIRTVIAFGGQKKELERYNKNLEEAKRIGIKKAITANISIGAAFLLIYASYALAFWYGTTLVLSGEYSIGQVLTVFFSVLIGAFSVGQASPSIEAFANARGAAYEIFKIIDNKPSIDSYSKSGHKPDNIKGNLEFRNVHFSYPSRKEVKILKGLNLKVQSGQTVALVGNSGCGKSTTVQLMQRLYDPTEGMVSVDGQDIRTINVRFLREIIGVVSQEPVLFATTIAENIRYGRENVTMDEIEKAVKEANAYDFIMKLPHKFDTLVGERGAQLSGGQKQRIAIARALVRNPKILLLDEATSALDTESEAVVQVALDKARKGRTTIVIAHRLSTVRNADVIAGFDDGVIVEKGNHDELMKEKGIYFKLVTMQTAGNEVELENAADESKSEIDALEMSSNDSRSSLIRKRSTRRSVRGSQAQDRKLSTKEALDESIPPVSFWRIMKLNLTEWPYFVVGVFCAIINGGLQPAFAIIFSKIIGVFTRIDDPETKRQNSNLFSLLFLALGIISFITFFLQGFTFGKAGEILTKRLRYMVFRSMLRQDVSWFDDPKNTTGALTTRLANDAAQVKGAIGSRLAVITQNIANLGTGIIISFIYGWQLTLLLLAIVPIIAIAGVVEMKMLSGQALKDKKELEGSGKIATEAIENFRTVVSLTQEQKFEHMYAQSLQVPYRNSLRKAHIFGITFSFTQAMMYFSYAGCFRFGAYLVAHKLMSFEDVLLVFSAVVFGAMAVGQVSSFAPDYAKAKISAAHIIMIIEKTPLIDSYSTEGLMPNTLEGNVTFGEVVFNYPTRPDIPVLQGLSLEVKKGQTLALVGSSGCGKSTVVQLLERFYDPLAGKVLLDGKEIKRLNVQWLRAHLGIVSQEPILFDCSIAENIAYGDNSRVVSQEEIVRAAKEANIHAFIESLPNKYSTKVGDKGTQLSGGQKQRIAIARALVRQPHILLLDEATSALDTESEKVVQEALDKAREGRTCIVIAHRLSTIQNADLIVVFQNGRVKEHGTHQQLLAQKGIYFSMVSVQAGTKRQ

As for `Cc1nc(C)c(C)nc1C` [TMP, tetramethylpyrazine], the “effect on the absorption of HSYA on Caco-2 cells” value was “significantly increased”.

For the origin of these results see paper PMC3415323 (International Journal of Nanomedicine, 2012).
